In US5607926A, “Cephalosporin antibiotics” (Microcide Pharmaceuticals, Inc., priority 1995, dated 1997):
In brackets after ≈: the same amount, converted by molar mass. Like-named read-outs stand apart in the source and are kept apart here.

How the values were obtained:
[1] = test system: E. faecalis ATCC 29212; assay: In vitro antibacterial evaluation, MIC by agar dilution, E. faecalis ATCC 29212; assay type: cell-based; details: Enterococcus faecalis, ATCC29212; E. faecalis ATCC 29212; read-out: MIC
Procedure, shortened: (§1)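 In this standardized agar dilution format, compound was dissolved in PBS pH 7.2, with Tween 20 or DMSO as needed, and mixed into molten Mueller-Hinton agar to final levels of 128 down to ≤0.25 μg/mL. About 10^4 cfu were spotted per isolate, and MIC was recorded after 16-20 h at 35°-36° C.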

[2] = test system: E. faecium ATCC 35667; assay: In vitro antibacterial evaluation, MIC by agar dilution, E. faecium ATCC 35667; assay type: cell-based; details: Enterococcus faecium, ATCC35667, read-out: MIC
Procedure, shortened: as §1

[3] = test system: S. aureus Col8A (Meth^S)(lac^-); assay: In vitro antibacterial evaluation, MIC by agar dilution, S. aureus Col8A; assay type: cell-based; details: Staphylococcus aureus
Procedure, shortened: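 Log-phase isolates were spot-inoculated at about 10^4 cfu onto Mueller-Hinton agar carrying duplicate two-fold compound levels, 128 μg/mL to ≤0.25 μg/mL, following NCCLS (1991). Plates were read after 16-20 h at 35°-36° C. The lowest growth-inhibiting concentration gave the MIC (μg/ml).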

[4] = test system: methicillinsusceptible S. aureus strain ATCC 13709; assay: In vivo antibacterial evaluation, murine model for lethal bacteremic peritonitis; design: species or system S. aureus in female Swiss-Webster mice; details: Staphylococcus aureus, ATCC13709, sc, 72 h, two equal SC doses at challenge and 2 hours later, mice, probit, read-out: ED50
Protocol: Groups of 5 female Swiss-Webster mice (Simonsen, Gilroy, Calif.) each are challenged by the intraperitoneal (IP) route with ten-fold increments of a bacterial inoculum. This permits calculation of the mean lethal dose (LD50) and the LD100. For preliminary evaluation of a new antibiotic, mice are challenged IP with an LD100 titer of bacteria. In two equal doses administered at the time of bacterial challenge and 2 hours later, groups of 10 mice each are treated subcutaneously with two-fold increments of the test drug and an antibiotic of known efficacy in mice and humans (i.e., positive control). Mice are observed for 72 h. Those alive at 72 h are considered long term survivors. The total drug dose in mg/kg that protects 50% of mice in a group from death is termed the mean protective dose (PD50). PD50 s are similarly determined for several pathogens. The quantitative endpoints for the new drug are then compared with those obtained with reference antibiotics.
Six ten-fold dilutions of inoculum suspended in 0.5 mL of sterilized 7% hog gastric mucin (Sigma) are injected IP in groups of 5 mice each. A control group of 5 mice receive mucin alone. Mice are observed for 72 h. Those alive at 72 h are considered long term survivors. The mean lethal dose (LD50) and 100% lethal dose (LD100) are determined by the probit test.
For antibiotic efficacy studies, mice are challenged IP with bacterial titers that will afford an LD100 for the test strain. In two equal doses administered at the time of bacterial challenge and 2 hours later, groups of 10 mice each are treated by the subcutaneous route (SC) with twofold increments of the test antibiotic; another group is treated similarly with a reference antibiotic of known efficacy in animals and man. Drug doses can range from 0.01 to 512 mg/kg. If the drug is poorly soluble, Tween 20 or propylene glycol will be employed to solubilize the drug. Animals are observed for 72 h. The 50% protective dose (PD50) is calculated in mg/kg by the probit method. The PD50 is the same as the 50% effective dose (ED50) and the 50% curative dose (CD50). Samples of blood from the hearts of all animals that die and from half the mice that survive are cultured on brain-heart infusion agar. Animals that received a protective dosage of the test drug will be alive at 72 h, although they may appear moderately ill to very ill during the observation period. […] Most of these mice will die within 6 to 48 h. Those alive at 72 h will be considered long term survivors.
(§2) data reported for challenge with methicillinsusceptible S. aureus strain

[5] = test system: S. haemolyticus (Meth^R); assay: In vitro antibacterial evaluation, MIC by agar dilution, S. haemolyticus; assay type: cell-based; details: Staphylococcus haemolyticus, read-out: MIC
Procedure, shortened: as §1

[6] = test system: S. aureus 76 (Meth^R)(lac^+); assay: In vitro antibacterial evaluation, MIC by agar dilution, S. aureus 76; assay type: cell-based; details: Staphylococcus aureus, read-out: MIC
Procedure, shortened: as §1

[7] = test system: P. aeruginosa ATCC 27853; assay: In vitro antibacterial evaluation, MIC by agar dilution, P. aeruginosa ATCC 27853; assay type: cell-based; details: Pseudomonas aeruginosa, ATCC27853, read-out: MIC
Procedure, shortened: as §1

[8] = test system: methicillinsusceptible S. aureus strain ATCC 13709; assay: Challenge strain MIC; assay type: cell-based; details: Staphylococcus aureus
Protocol: The compounds of the invention were evaluated against several β-lactamresistant bacteria strains by determining the minimum inhibitory concentration (MIC, μg/ml) of each compound with respect to each strain. The MIC, the lowest concentration of antibiotic which inhibits growth of the test organism, was determined by the agar dilution method.
To determine the MIC for bacterial isolates, the test compound was incorporated in a series of two-fold dilutions into liquified Mueller-Hinton agar. Upon solidification, a number of different bacterial strains were spot inoculated with a replicating device onto the agar surface. […] The procedures used in these studies have been standardized by the National Committee for Clinical Laboratory Standards (NCCLS), as per the NCCLS publication entitled METHODS FOR DILUTION ANTIMICROBIAL SUSCEPTIBILITY TESTS (1991), which is incorporated herein by reference.
Aliquots of antimicrobial agents were prepared in phosphate buffered saline (PBS) at pH 7.2. Tween 20 or DMSO was used as a solubilizing vehicle as needed. Standard methods of vortexing, sonicating and gentle heat were used to facilitate solubilizing the test agent. Typically, the concentration of the stock solution was 10× that of the highest drug concentration tested. A 1.28 mg/mL stock solution was used with a subsequent highest working concentration of 128 μg/mL. Serial two-fold dilutions were done through ≤0.25 μg/mL. Each drug level was tested in duplicate. Two-fold drug dilutions were done in sterile 50 mL tubes with a final drug volume of 5 mL. Upon the addition of 45 mL of molten agar, a 10-fold dilution resulted. Two, 25 mL. plates were then poured into 15×150 mm square Petri plates with grids and allowed to harden.
A control plate with a reference drug, either cefotaxime, vancomycin or imipenem, was used as the positive growth control. Stock concentrations of reference antibiotics were prepared and frozen at -80° C. Upon preparation, the control plates were sealed and stored in the refrigerator for up to 1 week prior to use; however, imipenem control plates had to be prepared just prior to use. All test plates were used within 24 hours of preparation.
Satisfactory results were obtained where the inoculum contained about 10^4 colony forming units (cfu) ±0.5 logs. Starting with pure cultures of the test isolates on agar plates, a few isolated colonies were transferred to a tube of nutrient broth and allowed to grow 4-6 hours at 35°-36° C. to reach log-phase growth. Dropwise addition of the broth culture to PBS was done to match a 0.5 McFarland turbidity standard equal to 10^8 cfu/mL. This was further diluted ten-fold in PBS to reach a working inoculum concentration of 10^7 cfu/mL. When 1 μL of the working inoculum was applied to the agar surface a concentration of about 10^4 cfu per spot was obtained.
Disposable sterile 1 μL loops were used to inoculate test plates, with each isolate in a designated grid on the agar plate. An alternate method of inoculation involved the use of a replica plater, a device with 48 steel pins allowing the simultaneous inoculation of multiple isolates. After the spots had dried, the plates were incubated at 35°-36° C. for 16-20 hours. Endpoints were assessed as the minimum inhibitory concentration (MIC) of antimicrobial agent.
as §2

[9] = test system: E. coli ATCC 25922; assay: In vitro antibacterial evaluation, MIC by agar dilution, E. coli ATCC 25922; assay type: cell-based; details: Escherichia coli, ATCC25922, read-out: MIC
Procedure, shortened: as §1

[10] = test system: S. aureus ATCC 29213; assay: In vitro antibacterial evaluation, MIC by agar dilution, S. aureus ATCC 29213; assay type: cell-based; details: Staphylococcus aureus, ATCC29213
Procedure, shortened: as §1

[11] = ATCC13709, read-out: Challenge str MIC
[12] = S. aureus ATCC 29213, read-out: MIC
[13] = ATCC13709, S. aureus ATCC 13709, read-out: Challenge str MIC

Compound | MIC [1] [µg/mL] | MIC [2] [µg/mL] | MIC [3] [µg/mL] | ED50 [4] [mg/kg] | MIC [5] [µg/mL] | MIC [6] [µg/mL] | MIC [7] [µg/mL] | MIC [8, 11] [µg/mL] | MIC [9] [µg/mL] | MIC [10, 12] [µg/mL] | MIC [8, 13] [µg/mL] | MIC [10] [µg/mL]
CSCC(=O)N[C@@H]1C(=O)N2C(C(=O)O)=C(Sc3ccnn3-c3ccccc3)CS[C@H]12 [Cmpd 106, (7R)-7-[(methylthioacetyl)amino]-3-(1-N-phenylpyrazol-5-ylthio)-3-cephem-4-carboxylic acid] | 4 (≈ 8.65 µM) | 4 (≈ 8.65 µM) | 0.125 (≈ 0.27 µM) | 0.72 | 32 (≈ 69.2 µM) | 8 (≈ 17.3 µM) | > 32 | 0.125 (≈ 0.27 µM) | > 32 | 0.25 (≈ 0.54 µM) | – | –
N#CCSCC(=O)N[C@@H]1C(=O)N2C(C(=O)O)=C(Sc3ccnn3-c3ccccc3)CS[C@H]12 [Cmpd 122, (7R)-7-[(cyanomethylthioacetyl)amino]-3-(1-N-phenylpyrazol-5-ylthio)-3-cephem-4-carboxylic acid] | 4 (≈ 8.2 µM) | 4 (≈ 8.2 µM) | 0.25 (≈ 0.513 µM) | 1.13 | 16 (≈ 32.8 µM) | 8 (≈ 16.4 µM) | > 32 | – | > 32 | – | 0.125 (≈ 0.256 µM) | 0.25 (≈ 0.513 µM)
O=C(CSc1ccccc1)N[C@@H]1C(=O)N2C(C(=O)O)=C(Sc3ccnn3-c3ccccc3)CS[C@H]12 [Cmpd 119, (7R)-7-[(phenylthioacetyl)amino]-3-(1-N-phenylpyrazol-5-ylthio)-3-cephem-4-carboxylic acid] | 1 (≈ 1.91 µM) | 1 (≈ 1.91 µM) | 0.06 (≈ 0.114 µM) | > 5 | 16 (≈ 30.5 µM) | 8 (≈ 15.2 µM) | > 32 | – | > 32 | 0.125 (≈ 0.238 µM) | 0.25 (≈ 0.477 µM) | –
N#Cc1ncccc1SC1=C(C(=O)O)N2C(=O)[C@@H](NC(=O)Cc3ccccc3)[C@H]2SC1 [Cmpd 102, (7R)-7-[(Phenylacetyl)amino]-3-(2-cyanopyridin-3-ylthio)-3-cephem-4-carboxylic acid] | 2 (≈ 4.42 µM) | 4 (≈ 8.84 µM) | 0.125 (≈ 0.276 µM) | 1.75 | 32 (≈ 70.7 µM) | 16 (≈ 35.4 µM) | > 32 | 0.125 (≈ 0.276 µM) | 32 (≈ 70.7 µM) | – | – | 0.125 (≈ 0.276 µM)
O=C(CSc1ccncc1)N[C@@H]1C(=O)N2C(C(=O)O)=C(Sc3ccnn3-c3ccccc3)CS[C@H]12 [Cmpd 110, (7R)-7-[(4-pyridylthioacetyl)amino]-3-(1-N-phenylpyrazol-5-ylthio)-3-cephem-4-carboxylic acid] | 2 (≈ 3.8 µM) | 2 (≈ 3.8 µM) | 0.25 (≈ 0.476 µM) | 3.45 | > 16 | 8 (≈ 15.2 µM) | > 32 | – | > 32 | – | 0.25 (≈ 0.476 µM) | 0.25 (≈ 0.476 µM)
O=C(O)C1=C(Sc2ccnn2-c2ccccc2)CS[C@@H]2[C@H](NC(=O)C3SCCS3)C(=O)N12 [Cmpd 115, (7R)-7-[(2-dithiolanylcarbonyl)amino]-3-(1-N-phenylpyrazol-5-ylthio)-3-cephem-4-carboxylic acid] | 4 (≈ 7.89 µM) | 8 (≈ 15.8 µM) | 0.25 (≈ 0.493 µM) | 3.04 | 32 (≈ 63.2 µM) | 8 (≈ 15.8 µM) | > 32 | – | > 32 | – | 0.25 (≈ 0.493 µM) | 0.25 (≈ 0.493 µM)
CCC(CC)O/N=C(\C(=O)N[C@@H]1C(=O)N2C(C(=O)O)=C(Sc3ccnn3-c3ccccc3)CS[C@H]12)c1csc(N)n1 [Cmpd 104, (7R)-7-[(Z)-2-(aminothiazol-4-yl)-2-(3-pentyloxyimino)acetamido]-3-(1-N-phenylpyrazol-5-ylthio)-3-cephem-4-carboxylic acid] | 2 (≈ 3.26 µM) | 4 (≈ 6.52 µM) | 0.5 (≈ 0.815 µM) | > 10 | 4 (≈ 6.52 µM) | 4 (≈ 6.52 µM) | 16 (≈ 26.1 µM) | – | 8 (≈ 13 µM) | 0.5 (≈ 0.815 µM) | 0.5 (≈ 0.815 µM) | –
